Entries after “also recorded” stand apart in the source; their conditions may differ. Like-named read-outs stand apart in the source and are kept apart here.

One data set addresses CDK4 (Homo sapiens, UniProt P11802). Put plainly: CDK4 kinase IC50, Mobility shift assay. The data set is classed as biochemical. On the procedure: (§1) CDK kinase activity (IC50 values and inhibitory rate at single concentration) was measured using the kinase profiling services (Shanghai ChemPartner Co., Ltd). Compounds were sent to ChemPartner as a solution in DMSO at concentration of 10 mM.

Data set [1] deals with phosphorylation of Rb and RNA polymerase II, Mcl-1 and c-Myc protein. Put plainly: Immunoblots of CDK downstream proteins in MIA PaCa-2 cells. The data set is classed as cell-based, human. Conditions: 6 h exposure. On the procedure: Harvested cells were lysed in 20 mmol/L Tris pH 7.7, 100 mmol/L NaCl, 20 mmol/L β-glycerophosphate, 5 mmol/L MgCl2, 1 mmol/L NaF, 0.1% Triton X-100, 5% glycerol plus freshly added 1 mmol/L DTT, 0.1 µmol/L okadaic acid, 1 mmol/L sodium vanadate, and cOmplete Mini Protease Inhibitor Tablets (Roche, #11836170001). For SDS-PAGE, equal amounts of protein/lane were loaded. After gel transfer onto PDV membrane, immunoblots were performed using the following antibodies: CDK9 (Cell Signalling Technology #C12FT; 1:1,000), RNA polymerase II (Abcam #ab5131; 1:1000), MCL-1 (Abcam #Y37; […] (Cell Signalling Technology #d2b12; 1:1,000), c-Myc (Abcam #YB69; 1:1000). Secondary antibodies were from Cell Signalling Technology (#7076 or #7074). ECL detection was performed.
For orientation: In western blotting, separated proteins are transferred to a membrane and probed.

In another data set the test system is MIA PaCa-2 cells. Put plainly: Apoptosis analysis by PI and annexin V-FITC staining and flow cytometry. It counts as cell-based, human. Conditions: 24 h treatment. As to the method:
MIA PaCa-2 cells were incubated with test compound at given concentration for indicated time in 6 well plates. The cells were collected and washed with cold PBS for two times. For cell cycle analysis, cells were fixed with 1 ml of 70% ethanol at −20 °C overnight then re-suspended with 400 µL binding buffer at density of 10^6 cells/mL, with PI staining for 30 min at room temperature. DNA contents were analysed by a BD Accuri C6 flow cytometry (BD Biosciences, Mountain View, CA, USA). For cell apoptosis analysis, after centrifugation and removal of the supernatants, cells were resuspended in 500 µL of 1 ×binding buffer which was then added to 5 µL of annexin V-FITC and incubated at room temperature for 10 min. After adding 10 µL of PI the cells were incubated at room temperature for another 10 min, and their fluorescence intensity evaluated by a BD Accuri C6 (BD Biosciences, Mountain View, CA, USA).

A further data set can be described thus: Oral PK study in rats. It counts as in vivo. Conditions: male, SD, rat, plasma, 30 mg/kg. As to the method:
(§2) Synthetic compound was administered as a suspension or solution in the saline with 5% DMSO and 5% Solutol. GCTB was dissolved in saline. All of the experiments were approved by the Institutional Animal Care and Use Committee of Institute of Medicinal Biotechnology. All experiments were carried out under ethics committee–approved protocols and in compliance with the guidelines for the care of laboratory animals of Institute of Medicinal Biotechnology, CAMS.
SD rats were purchased from Beijing Vital River Laboratory Animal Technology Co., Ltd and randomly divided into three groups (n = 3, male). The animals were housed under standard conditions and fastened for 12 h before the treatment. They had free access to water and consumed a standard laboratory diet from 4 h after administration. Blood was taken from the orbital venous plexus at 0, 0.083, 0.25, 0.5, 1, 2, 4, 6, 8, and 24 h after intragastric administration of the test compound (30 mg/kg). The blood samples were collected into heparin anticoagulated EP tubes and centrifuged at 8000 r/min for 5 min at 2−8 °C; the plasma was separated and stored at −70 °C for use. Plasma was centrifuged at 4000 rpm for 10 min at 2−8 °C and stored at −70 °C until analysis. Plasma samples were analysed by LC-MS/MS (AB Sciex API4000 QTRAP) equipped with an ESI ion resource and Analyst 1.5.1 software. The noncompartmental model analysis was used for calculating pharmacokinetic parameters with the WinNolin professional v6.3 program (Pharsight, USA).

For data set [2], the system named is AsPC-1 cell-derived xenograft. Kind of data set: AsPC-1 cell-derived xenograft mice model, in vivo efficacy. More on the design: species or system BALB/C nude mice. Conditions: five days on two days off per week. On the procedure: as §2
AsPC-1 (5 × 10^7) cells were injected subcutaneously into 5-week-old female BALB/C nude mice (Beijing Huafukang Bioscience CO. Inc, Beijing, China). After two weeks, mice were omogenizamised and treated with vehicle, gemcitabine (GCTB), or test compound. Blank solvent and test compound was administered by oral gavage (10 ml/kg) with once daily of five days and followed by 2 days off in each week, GCTB was given once a week by 50 mg/kg intraperitoneal injection. Mice were inspected daily for clinical signs, both tumour diameters and body weight were determined 3 times weekly. Tumour volumes were calculated according to the formula “tumor volume (V) = length × width^2/2”. Median TGI values were calculated as follows: TGI = 100 × [1-(Vtreated group at day20-Vtreated group at day1)/(Vvehicle group at day20-Vvehicle group at day1)]. Data were plotted as average with SD in the graphical representation of tumour growth. The p values obtained from the two-way ANOVA analysis. Meanwhile, main organs of mice were collected, formalin-fixed and paraffin-embedded for pathological analysis by H&E dyeing. For drug concentration determination, blood and tumour tissues were collected at indicated time after single administration. Standard curve of test compound was established in the acquisition mode of SIM using a SHIMADZU LC-MS instrument. […] After centrifugation at 10 × 10^3 for 5 min, the supernatant was injected directedly into LC-MS instrument for quantification of drug concentration. […] After centrifugation under same condition as plasma samples, supernatant was separated and injected into LC-MS for quantification.

In a further data set the target is CDK9 (Homo sapiens, UniProt P50750). Kind of data set: CDK9 kinase IC50, Mobility shift assay. The data set is classed as biochemical. On the procedure: as §1
Sequence of CDK9 (P50750 whole entry): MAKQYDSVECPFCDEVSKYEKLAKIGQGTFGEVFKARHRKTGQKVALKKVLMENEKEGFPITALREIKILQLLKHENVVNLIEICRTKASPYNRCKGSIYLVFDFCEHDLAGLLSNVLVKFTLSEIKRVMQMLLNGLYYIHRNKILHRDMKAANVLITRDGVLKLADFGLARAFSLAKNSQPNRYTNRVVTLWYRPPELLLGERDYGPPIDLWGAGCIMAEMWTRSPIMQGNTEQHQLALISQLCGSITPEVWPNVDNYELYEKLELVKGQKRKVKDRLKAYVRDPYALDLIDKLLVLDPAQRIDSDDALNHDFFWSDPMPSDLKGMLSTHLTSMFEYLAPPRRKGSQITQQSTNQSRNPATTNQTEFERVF
Sequence of CDK9 (O60563 whole entry partner): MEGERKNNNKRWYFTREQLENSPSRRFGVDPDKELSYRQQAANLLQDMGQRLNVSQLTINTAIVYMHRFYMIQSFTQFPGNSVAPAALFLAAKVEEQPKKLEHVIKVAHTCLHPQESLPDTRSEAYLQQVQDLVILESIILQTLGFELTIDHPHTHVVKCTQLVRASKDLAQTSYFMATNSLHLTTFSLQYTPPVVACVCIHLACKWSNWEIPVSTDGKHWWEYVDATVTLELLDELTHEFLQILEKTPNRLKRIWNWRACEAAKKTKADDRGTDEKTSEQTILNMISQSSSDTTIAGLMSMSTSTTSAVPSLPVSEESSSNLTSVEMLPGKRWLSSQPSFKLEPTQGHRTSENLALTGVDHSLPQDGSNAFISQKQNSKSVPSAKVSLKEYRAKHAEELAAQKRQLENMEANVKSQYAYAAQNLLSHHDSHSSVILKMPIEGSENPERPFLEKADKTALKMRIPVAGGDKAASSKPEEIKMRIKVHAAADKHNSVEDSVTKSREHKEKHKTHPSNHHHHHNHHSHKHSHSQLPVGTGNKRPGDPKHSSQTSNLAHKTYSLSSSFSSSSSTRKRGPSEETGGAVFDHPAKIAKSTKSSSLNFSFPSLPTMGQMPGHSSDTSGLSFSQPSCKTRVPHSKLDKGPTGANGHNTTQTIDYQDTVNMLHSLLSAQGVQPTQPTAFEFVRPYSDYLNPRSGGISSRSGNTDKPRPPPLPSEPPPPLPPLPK
A short description of data set [3]: Body weight and H&E pathology of main organs in xenograft mice. The data set is classed as in vivo, BALB/C nude mice. On the procedure:
AsPC-1 (5 × 10^7) cells were injected subcutaneously into 5-week-old female BALB/C nude mice (Beijing Huafukang Bioscience CO. Inc, Beijing, China). After two weeks, mice were omogenizamised and treated with vehicle, gemcitabine (GCTB), or test compound. Blank solvent and test compound was administered by oral gavage (10 ml/kg) with once daily of five days and followed by 2 days off in each week, GCTB was given once a week by 50 mg/kg intraperitoneal injection. Mice were inspected daily for clinical signs, both tumour diameters and body weight were determined 3 times weekly. Tumour volumes were calculated according to the formula “tumor volume (V) = length × width^2/2”. Median TGI values were calculated as follows: TGI = 100 × [1-(Vtreated group at day20-Vtreated group at day1)/(Vvehicle group at day20-Vvehicle group at day1)]. Data were plotted as average with SD in the graphical representation of tumour growth. The p values obtained from the two-way ANOVA analysis. Meanwhile, main organs of mice were collected, formalin-fixed and paraffin-embedded for pathological analysis by H&E dyeing. For drug concentration determination, blood and tumour tissues were collected at indicated time after single administration. Standard curve of test compound was established in the acquisition mode of SIM using a SHIMADZU LC-MS instrument. Blood kept in anticoagulant tube coated with heparin sodium was centrifuged to provide the supernatant, which was followed by added with 3-fold acetonitrile to precipitate plasma protein. After centrifugation at 10 × 10^3 for 5 min, the supernatant was injected directedly into LC-MS instrument for quantification of drug concentration. As for tumour tissues, omogenizationation (Precellys Evolution) was done after weighed accurately and added with 3-fold saline. After centrifugation under same condition as plasma samples, supernatant was separated and injected into LC-MS for quantification.

Sequence of CDK4 (P11802 whole entry): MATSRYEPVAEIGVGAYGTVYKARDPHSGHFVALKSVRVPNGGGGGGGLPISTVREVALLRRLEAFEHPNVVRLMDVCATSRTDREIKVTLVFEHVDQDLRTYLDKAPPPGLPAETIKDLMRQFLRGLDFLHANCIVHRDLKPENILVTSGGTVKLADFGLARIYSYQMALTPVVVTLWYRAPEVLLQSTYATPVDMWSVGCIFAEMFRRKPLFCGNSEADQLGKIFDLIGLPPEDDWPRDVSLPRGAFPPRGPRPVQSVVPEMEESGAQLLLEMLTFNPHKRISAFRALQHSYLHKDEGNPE
Sequence of CDK4 (P30281 whole entry partner): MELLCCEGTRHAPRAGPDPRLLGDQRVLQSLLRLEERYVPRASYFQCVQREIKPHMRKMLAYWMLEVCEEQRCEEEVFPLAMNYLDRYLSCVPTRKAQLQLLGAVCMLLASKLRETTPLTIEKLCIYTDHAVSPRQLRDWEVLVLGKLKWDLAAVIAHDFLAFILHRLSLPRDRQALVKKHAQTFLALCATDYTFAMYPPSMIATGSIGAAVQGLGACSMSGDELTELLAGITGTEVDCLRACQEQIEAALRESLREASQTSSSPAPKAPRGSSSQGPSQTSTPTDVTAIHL

Regarding `CN(C)C(=O)c1cc2cnc(Nc3ccc(S(N)(=O)=O)cc3)nc2n1C1CCCC1` [compound 2g, 7-Cyclopentyl-N,N-dimethyl-2-((4-sulfamoylphenyl)amino)-7H-pyrrolo[2,3-d]pyrimidine-6-carboxamide], at CDK4, the IC50 (usually the midpoint of a concentration-inhibition curve) turned out to be 12 nM. Besides, in data set [1], the “Mcl-1 and c-Myc protein level” value was “down-regulation of Mcl-1 and c-Myc protein”; the “phosphorylation of Rb and RNA polymerase II” value is “down-regulation of phosphorylated Rb protein; also recorded: inhibited the phosphorylation of Rb and RNA polymerase II”. The “number of late apoptotic cells” value with MIA PaCa-2 cells is reported as “increased in a dose-dependent manner”. In the data set “Oral PK study in rats” (single oral administration, read-out: maximum plasma drug concentration (Cmax)), the Cmax is 1160 ng/mL. In “Oral PK study in rats” (single oral administration, read-out: systematic exposure (AUC0‑t)), the AUC came to 4620 ng·h/mL. In “Oral PK study in rats” (oral, n = 3), the AUC(0-inf) – broadly, the area under the concentration-time curve extrapolated to infinity – is 5080 ± 268 ng·h/mL; the AUC(0-t) (usually the area under the concentration-time curve up to a stated or last time point) amounted to 4620 ± 145 ng·h/mL; the mean residence time MRT (commonly the average time that molecules of a dose stay in the body) is 7.72 h; the Tmax (commonly the time at which the peak concentration occurs) was 0.5 h. Besides, the half-life (usually the time in which the quantity being followed falls by half) in “Oral PK study in rats” (oral, n = 3) is 7.54 h. In addition, the Cmax in “Oral PK study in rats” (oral, n = 3, read-out: Cmax) was determined as 2700 nM. Further, the “tumour growth inhibition (TGI)” value in data set [2] (oral 30 mg/kg, 3-week administration) was found to be 12%. In data set [2] (oral 60 mg/kg, 3 weeks), the “reduction of tumour volume compared to vehicle group” value is on record as “up to 46%”. In addition, the IC50 at CDK9 is 5 nM. Moreover, the “pathological change in main organs (H&E)” value in data set [3] (after 3-week treatment) is “no obvious pathological change”. Besides, in data set [3] (high dose of 2g, first ten days of administration), the body weight change result is “obvious decrease of body weight”.

Source of the values: paper PMC9858427, “Design, synthesis and biological evaluation of 2-((4-sulfamoylphenyl)amino)-pyrrolo[2,3-d]pyrimidine derivatives as CDK inhibitors” (Journal of Enzyme Inhibition and Medicinal Chemistry, 2023).
